Results on 73 compounds are retold here after PubChem BioAssay AID2740 (NMMLSC, 2010).

Activity calls are given as the source filed them.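 Rule for the calls: active = compounds whose fitted half-maximal concentration for changing the GFP signal is at or below a set limit; inactive = the rest.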

The assay is described as follows: TOR pathway RPL19A-GFP modulators, concentration series – cell-based, S. cerevisiae, flow cytometry, MLPCN hits, dose response (AID 2740).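 Note: background is signal of the same compound in parental non-GFP s288c yeast.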 The following applies: S. cerevisiae RPL19A-GFP strain, flow cytometry fluorescence, 3 h; at 33 µM (top of the series).
In the case of `COc1ccc(C=C2C(=O)c3ccccc3C2=O)cc1O`, the GFP fluorescence, lower = active (kMESF (background-subtracted)) was 38.1 (inactive). The figure for `CC(=O)N(C1=C(Cl)C(=O)c2ccccc2C1=O)C1CCCCC1` is -1.82 (inactive).

With `Cc1ccccc1[C@]1(C)ON(c2ccccc2C(F)(F)F)C1=O`, the GFP fluorescence, lower = active (kMESF (background-subtracted)) is 42.8 (inactive).

`CCCOc1ccc(C(=O)NNC(=S)NC(=O)CC)cc1`: the GFP fluorescence, lower = active (kMESF (background-subtracted)) was 50.5 (inactive). With `Cc1cc(=O)oc2cc(Oc3ccc([N+](=O)[O-])cc3C(F)(F)F)ccc12`, the GFP fluorescence, lower = active (kMESF (background-subtracted)) was 44.2 (inactive).

`O=c1c2cnn(-c3ccccc3)c2ncn1Cc1ccco1`: the GFP fluorescence, lower = active (kMESF (background-subtracted)) was 35.6 (inactive). The value for `CCN1/C(=C/C=C/c2sc3ccccc3[n+]2CC)Sc2ccccc21` was 31.9 (inactive); that for `CC(=O)N(C(C)=O)c1ncnc2c1c(-c1ccc(Cl)cc1)nn2C(C)(C)C` was 42.9 (inactive). Consider `O=C(Nc1nc(-c2ccccn2)cs1)C1COc2ccccc2O1` (stereo not drawn), for which the GFP fluorescence, lower = active (kMESF (background-subtracted)) was 21.1 (inactive). As for `O=S1(=O)C=C(Sc2nc3ccccc3s2)c2ccccc21`, the GFP fluorescence, lower = active (kMESF (background-subtracted)) is 36 (inactive). On to `Cc1[nH]c(-c2ccccn2)nc(=S)c1Cl`, for which the GFP fluorescence, lower = active (kMESF (background-subtracted)) was 30.8 (inactive). As to `CCn1c(=O)c(C(C)=O)c(O)c2ccccc21`, the GFP fluorescence, lower = active (kMESF (background-subtracted)) is 47 (inactive).

Consider `CC(C)(C)C(=O)NC(=S)NNC(=O)c1ccc(-c2ccccc2)cc1`, for which the GFP fluorescence, lower = active (kMESF (background-subtracted)) was 40.7 (inactive).

In the case of `O=C1C(=O)c2ccccc2-c2ccccc21`, the GFP fluorescence, lower = active (kMESF (background-subtracted)) is 17.7 (inactive). Turning to `COc1ccccc1N1C(=O)c2cccc3c(C(=O)O)ccc(c23)C1=O`, the GFP fluorescence, lower = active (kMESF (background-subtracted)) was 44.8 (inactive). The figure for `COc1ccc(-c2cc(C(F)(F)F)nc(S(C)(=O)=O)n2)cc1` is 44.7 (inactive). The figure for `O=[N+]([O-])c1cc(CN2CCN(c3ccccc3)CC2)c(O)c2ncccc12` is 45.6 (inactive). The value for `Cc1cc(C)c2c(c1)/C(=C/C(=O)c1ccc(Br)s1)C(=O)N2` was 46.6 (inactive). Take `CCCCOc1ccc(C(=O)NNC(=S)NC(=O)CC)cc1`: the GFP fluorescence, lower = active (kMESF (background-subtracted)) was 43 (inactive). With `O=C(NC(=S)NNC(=O)c1cnccn1)c1ccc(F)cc1`, the GFP fluorescence, lower = active (kMESF (background-subtracted)) was 31.9 (inactive). In the case of `COC(=O)CCS(=O)(=O)c1nc(-c2ccccc2)cc(C(F)(F)F)n1`, the GFP fluorescence, lower = active (kMESF (background-subtracted)) is 37.3 (inactive).

As for `O=C(COc1ccccc1)N1CCN(c2ncnc3c2cnn3-c2ccccc2)CC1`, the GFP fluorescence, lower = active (kMESF (background-subtracted)) was 37.1 (inactive). As for `O=c1[nH]c(-c2ccccn2)nc(C(F)(F)F)c1Br`, the GFP fluorescence, lower = active (kMESF (background-subtracted)) is 30.1 (inactive). The figure for `CC1=C/C(=N\OS(=O)(=O)c2ccccc2)C(C(C)C)=CC1=O` is 21.4 (inactive); for `COc1ccc(NC(=O)/C(Cl)=C(/Cl)S(=O)Cc2ccccc2)cn1` (stereo not drawn) it is 35.8 (inactive).

As for `O=C(Nc1nnc(-c2ccc3c(c2)CCCC3)o1)c1ccc(Cl)cc1Cl`, the GFP fluorescence, lower = active (kMESF (background-subtracted)) was 37.2 (inactive). For `CC1=C/C(=N\OS(=O)(=O)c2ccccc2)C(C)=CC1=O`, the GFP fluorescence, lower = active (kMESF (background-subtracted)) is 17.1 (inactive). The figure for `COc1ccc(N2C(=O)C(Cl)=C(Nc3c(C)n(C)n(-c4ccccc4)c3=O)C2=O)cc1` is 39.8 (inactive); for `O=C1c2ccccc2C(=O)N1OS(=O)(=O)c1ccccc1` it is 43.2 (inactive); for `Cc1cccc(C(=O)NNC(=S)NC(=O)c2ccccc2)c1` it is 48.3 (inactive).

Regarding `O=C(O)c1ccn2c(C(=O)c3ccccc3)c(-c3ccccc3)cc2c1`, the GFP fluorescence, lower = active (kMESF (background-subtracted)) was 39.3 (inactive). As for `Cc1ccc(C(=O)/C=C/C(=O)c2ccc(C)cc2)cc1`, the GFP fluorescence, lower = active (kMESF (background-subtracted)) is 47.5 (inactive).

As for `CCN(CC)c1ccc(/C=C2\C(=O)c3ccc(C(=O)O)cc3C2=O)cc1`, the GFP fluorescence, lower = active (kMESF (background-subtracted)) was 51.5 (inactive). For the compound `CCN1C(=O)/C(=C\C(=O)c2cccs2)c2cc(Br)ccc21`, the GFP fluorescence, lower = active (kMESF (background-subtracted)) was 34.5 (inactive). Regarding `CC(Oc1ccc2ccccc2c1)C(=O)NNC(=S)NC(=O)c1ccco1` (stereo not drawn), the GFP fluorescence, lower = active (kMESF (background-subtracted)) is 34.3 (inactive). The figure for `Cc1ccccc1[C@@]1(C)ON(c2ccccc2C(F)(F)F)C1=O` is 40.6 (inactive). In the case of `O=C(NC(=S)Nc1ccc2oc(=O)ccc2c1)c1cccc(Cl)c1`, the GFP fluorescence, lower = active (kMESF (background-subtracted)) is 37.2 (inactive). `O=C1C(Cl)=C(N2CCN(Cc3ccccc3)CC2)C(=O)N1c1ccccc1`: the GFP fluorescence, lower = active (kMESF (background-subtracted)) is 40.2 (inactive). As for `COC(=O)/C(=C/c1c[nH]c2ccccc12)[N+](=O)[O-]`, the GFP fluorescence, lower = active (kMESF (background-subtracted)) was 42.8 (inactive). The figure for `CC(=O)Oc1oc(-c2ccccc2)nc1C=Nc1ccccc1` is 39.7 (inactive). As to `O=C1c2cccc3c([N+](=O)[O-])ccc(c23)C(=O)N1O`, the GFP fluorescence, lower = active (kMESF (background-subtracted)) was 49.9 (inactive). The figure for `O=C(COc1ccc(F)cc1Cl)Nc1nc(-c2ccccn2)cs1` is 35.8 (inactive); for `O=C(Oc1oc(-c2ccco2)nc1C=Nc1ccccc1)c1ccoc1` it is 46.5 (inactive). In the case of `O=C1N(c2ccccc2C(F)(F)F)O[C@@]1(c1ccccc1)C1CCCCC1`, the GFP fluorescence, lower = active (kMESF (background-subtracted)) was 37.6 (inactive). The figure for `O=C(OCn1ncc(Br)c(Br)c1=O)c1ccc(F)cc1` is 37.3 (inactive). The figure for `Cc1ccc(C2=NN(S(C)(=O)=O)C(c3ccc4c(c3)OCO4)C2)cc1` (stereo not drawn) is 44.8 (inactive); for `Cc1ccc(C(=O)Oc2oc(-c3ccco3)nc2C=Nc2ccc(Cl)cc2)cc1` it is 40.8 (inactive); for `Cc1ccc(N2C(=O)CC(Sc3ncn[nH]3)C2=O)cc1C` (stereo not drawn) it is 49.3 (inactive). The figure for `O=C1N(c2ccccc2C(F)(F)F)OC1(Cc1ccccc1)c1ccccc1` (stereo not drawn) is 45.8 (inactive); for `C=CCn1c(C)c(/C=C/c2cc[n+](C)cc2)c2ccccc21` it is 52.8 (inactive); for `N=C1/C(=C\c2coc3ccccc3c2=O)C(=O)N=C2SC(c3ccncc3)=NN12` it is 25.5 (inactive). As for `Cc1ccc(/C=C2/SC(=S)N(C3CCCCC3)C2=O)o1`, the GFP fluorescence, lower = active (kMESF (background-subtracted)) was 38.3 (inactive). Take `Cc1ccc(S(=O)(=O)c2ncccc2[N+](=O)[O-])cc1`: the GFP fluorescence, lower = active (kMESF (background-subtracted)) was 47.4 (inactive). As to `O=C1ON=C(c2ccccc2)/C1=C/c1ccc(-c2ccccc2[N+](=O)[O-])o1`, the GFP fluorescence, lower = active (kMESF (background-subtracted)) is 25.3 (inactive).

As for `Cc1ccc(C2=NOC(=O)/C2=C\c2ccc(C)o2)cc1`, the GFP fluorescence, lower = active (kMESF (background-subtracted)) was 22 (inactive).

For the compound `Fc1cccc(Nc2ncnc3c2cnn3-c2ccccc2)c1`, the GFP fluorescence, lower = active (kMESF (background-subtracted)) is 35.1 (inactive).

Regarding `C=CCOc1ccc(C(=O)/C=C2/C(=O)Nc3ccccc32)cc1`, the GFP fluorescence, lower = active (kMESF (background-subtracted)) was 37.9 (inactive). For the compound `CC(C)Cn1c(=O)c(C(=O)Nc2ccncc2)c(O)c2ccccc21`, the GFP fluorescence, lower = active (kMESF (background-subtracted)) was 5.71 (inactive). On to `O=c1oc2ccccc2c(O)c1[C@H]1c2ccc(O)cc2Oc2c1c(=O)oc1ccccc21`, for which the GFP fluorescence, lower = active (kMESF (background-subtracted)) was 34.8 (inactive).

For `O=C1C=C(c2ccc(Cl)cc2)C(=O)N1Nc1ccccc1`, the GFP fluorescence, lower = active (kMESF (background-subtracted)) is 18.7 (inactive). In the case of `O=C1c2ccccc2C(=O)C2OC12` (stereo not drawn), the GFP fluorescence, lower = active (kMESF (background-subtracted)) is 29.2 (inactive).

As for `COc1ccccc1N=Nc1ccc(O)c2ncccc12`, the GFP fluorescence, lower = active (kMESF (background-subtracted)) is 32.6 (inactive). Regarding `O=C(c1ccc(Cl)cc1)N1CCN(c2cccc3[nH]ccc23)CC1`, the GFP fluorescence, lower = active (kMESF (background-subtracted)) is 41.9 (inactive).

In the case of `N/C(=N\OC(=O)c1cccc(Br)c1)c1ccccc1`, the GFP fluorescence, lower = active (kMESF (background-subtracted)) was 40.8 (inactive).

On to `COc1ccc(N2CCN(C(=O)c3ccccc3)CC2)c([N+](=O)[O-])c1`, for which the GFP fluorescence, lower = active (kMESF (background-subtracted)) was 47.4 (inactive).

Regarding `COc1ccc(N2C(=O)C(Cl)=C(NCc3ccccc3)C2=O)cc1`, the GFP fluorescence, lower = active (kMESF (background-subtracted)) is 44.3 (inactive). The value for `Cc1ccc(/C=C2\SC(=S)N(Cc3ccccc3)C2=O)o1` was 39.4 (inactive); that for `O=C1C=C(Nc2ccc(Cl)cc2)C(=O)N1c1ccc(Cl)cc1` was 39.1 (inactive). The value for `Nc1c(C(=O)c2cccs2)sc2nsc(SCCN3CCCCC3)c12` was 38.1 (inactive); that for `O=C(NC(=S)NNC(=O)c1ccc(Cl)cc1Cl)c1cccnc1` was 18.7 (inactive). The figure for `Cc1ccccc1OCCOC(=O)c1ccc(S(=O)(=O)N2CCCC2)cc1` is 43.3 (inactive); for `O=C(COc1ccccc1)NNC(=S)NC(=O)c1ccc(Cl)cc1Cl` it is 28 (inactive); for `O=C(O)/C=C/C(=O)c1ccc2c(c1)CCc1ccccc1-2` it is 16.8 (inactive).
